Laboratory results taken from patent US12156886B2, “Methods of increasing blood oxygen saturation” (ThermoLife International, LLC, priority 2020, dated 2024).

How the values were obtained:
[1] = test system: NO-induced methemoglobinemia; assay: NO-induced methemoglobinemia and lung inflammation after accidental NO exposure, H2 inhalation and magnesium ingestion (Example 12); type: in vivo, human
Text: During the course of developing the described methods for producing NO for a more affordable, effective, and safe source of NO therapy, one of the inventors accidentally exposed themself both chronically and acutely to NO gas. […] Since onset of symptoms, the inventor inhaled H2 gas, produced by reacting elemental magnesium and citric acid in a glass of water.
Their condition and SpO2 worsened throughout the day, and later that night they were admitted in the emergency room at a hospital with a recorded SpO2 of 45%. The hospital verified that the inventor developed NO-induced lung inflammation by X-rays and a CAT scan. Upon the diagnosis, blood samples were taken from the inventor to measure methemoglobin levels. […] A normal methemoglobin fraction is about 1%. […] Accordingly, no methemoglobin treatment (e.g., intravenous administration of methylene blue) was administered to the inventor.

[2] = cited from earlier work
[3] = Inventor exposed to NO levels higher than 25 ppm during development, SpO2 oximeter; type: in vivo, human
Text: In fact, the inventor's oxygenation levels as measured by SpO2 oximeter were always in the 97-100 range. Accordingly, also disclosed herein are methods of preventing the onset of methemoglobinemia from nitrate, nitrite, or NO exposure, wherein the method comprising administering hydrogen to the subject exposed to a source of nitrate, a source of nitrite, or NO.

[4] = cited from earlier work; remark: listed apart in the source
[5] = cited from earlier work; remark: listed apart in the source
[6] = test system: subject with respiratory illness

SMILES: [HH] [H2 gas, hydrogen]
- methemoglobin in blood samples ([1]; at SpO2 of 45%, after H2 inhalation and 2000 mg elemental magnesium powder): no methemoglobin was detected
- minor methemoglobinemia caused by inhalation of NO gas ([1]; other experiments, SpO2 returning to normal): reversed
- increase in relative humidity (for every about 40 ppm increase in H2 concentration, 30 C): 1%
- H2 concentration shown safe (no symptoms of water in the lungs) (sensor limit 1000 ppm): 1000 ppm

SMILES: [O]N=O [NO2, nitrogen dioxide]
- permissible exposure limit in homes and offices ([2]; OSHA, 9 mg/m^3): ≤ 5 ppm
- concentration that can trigger symptoms in asthmatic people ([2]; OSHA): 2 ppm
- concentration that starts to damage the lungs ([2]; OSHA): 5 ppm
- levels shown to cause respiratory discomfort in vulnerable populations ([2]; asthmatics): ≥ 0.1 ppm
- concentration that can kill a human ([2]; exposed for about an hour): 100 ppm

SMILES: [N]=O [NO, nitric oxide]
- SpO2 one day after exposure to high ambient NO ([1]; ambient NO >80 ppm): 85%
- SpO2 recorded in the emergency room later that night ([1]; ambient NO >80 ppm, after prolonged H2 inhalation): 45%
- ill effects ([3]; NO levels higher than 25 ppm): no ill effects
- oxygenation levels by SpO2 oximeter ([3]; exposed multiple times to NO levels higher than 25 ppm): 97-100
- outright toxic concentration ([2]; in vivo): ≥ 100 ppm

SMILES: O=NO [Sodium nitrite]
- methemoglobin level ([4]; 600 mg to an adult for cyanide toxicity, van Heijst et al.): 58%
- lowest calculated lethal dose ([4]; Katabami et al.): 2.6 grams
- dose in a reported case of severe methemoglobinemia ([4]; in vivo): about 70 mg

SMILES: O=[N+]([O-])O [nitrate alone]
- oxygen saturation ([5]; 409 mg and 479 mg doses, Rosetti et al., Barlow et al.): failed to produce any increase in oxygen saturation

SMILES: O=[N+]([O-])[O-].[K+] [potassium nitrate]
- other symptoms (weakness, coughing) ([6]; human, in vivo): no attenuation of their other symptoms
- SpO2 for up to 4 hours after administration ([6]; person): showed no signs of increase
- SpO2 15 minutes after administration ([6]; person, baseline 93%): 93%
- lower blood oxygen saturation versus the placebo ([5]; hypoxic conditions, Schiffer et al.): about 3%

SMILES: O=[N+]([O-])[O-].[Na+] [sodium nitrate]
- oxygen consumption during exercise ([5]; Larsen et al., Bailey et al.): reduce oxygen consumption during exercise
